From PMC9958325 (Nature Communications, 2023) come the findings set out here.

Molecules are shown by their SMILES. Where “and” joins values, the source holds several entries; their conditions need not be identical. Equal values may be shown once. Read-outs that look alike come from different tables or passages of the source.

One assay concerns SARS-CoV-2 5356/κ. As to the kind of experiment: microbe, parasite or virus in culture. The class given is cell-based.
In another assay the test system is SARS-CoV-2 TY7-501/γ. Nature of the assay: microbe, parasite or virus in culture. The class given is cell-based.
Another assay concerns SARS-CoV-2 TY8-612/β. Nature of the assay: microbe, parasite or virus in culture. The class given is cell-based.
A further assay has as its system SARS-CoV-2 QHN001/α. Nature of the assay: microbe, parasite or virus in culture. The class given is cell-based.
Another assay has as its system SARS-CoV-2 K1734/δ. As to the kind of experiment: microbe, parasite or virus in culture. The class given is cell-based.
The next assay concerns the target Glycine-added M^pro (Severe acute respiratory syndrome coronavirus 2, UniProt P0DTD1).
Assay [1] concerns SARS-CoV-2 Delta, BA.1 and BA.2 variants. The arrangement: species or system hACE2 knock-in mice. Particulars: mouse, in vivo, ip.
Another assay deals with SARS-CoV-2^WK-521. Nature of the assay: microbe, parasite or virus in culture. It counts as cell-based. The settings on record: read-out: EC50 in cell-based assays.
For assay [2], the system named is SARS-CoV-2 Delta, BA.1 and BA.2 variants. Details: species or system hACE2 knock-in mice. Particulars: mouse, in vivo.
[3] abbreviates: read-out: EC50 κ, individual assays.
The mark [4] stands for this setting: read-out: EC50 γ, individual assays.
[5] abbreviates: read-out: EC50 β, individual assays.
[6] abbreviates: read-out: EC50 α, individual assays.
Setting [7] is: read-out: EC50 δ, individual assays.
The mark [8] stands for this setting: read-out: EC50 against Y7-501/γ.
[9] abbreviates: read-out: EC50 against TY8-612/β.
[10] abbreviates: read-out: EC50 against QHN001/α.

For `CC(C)(C)[C@H](NC(=O)C(F)(F)F)C(=O)N1C[C@H]2[C@@H]([C@H]1C(=O)N[C@H](C#N)C[C@@H]1CCNC1=O)C2(C)C` [Nirmatrelvir, reference compound], the EC50 in the assay on SARS-CoV-2 5356/κ (Severe acute respiratory syndrome coronavirus 2, Vero C1008, read-out: EC50 against 5356/k) is 1660 ± 606 nM; in the assay on SARS-CoV-2 5356/κ (Severe acute respiratory syndrome coronavirus 2, Vero C1008, read-out: EC50 κ, Average), 1660 nM; in the assay on SARS-CoV-2 5356/κ (setting [3]), 1650 nM and 2270 nM and 1060 nM; in the assay on SARS-CoV-2 TY7-501/γ (Severe acute respiratory syndrome coronavirus 2, Vero C1008, read-out: EC50 against Y7-501/γ) it was 2490 ± 292 nM; with SARS-CoV-2 TY7-501/γ (Severe acute respiratory syndrome coronavirus 2, Vero C1008, read-out: EC50 γ, Average) it was 2490 nM; in the assay on SARS-CoV-2 TY7-501/γ (Severe acute respiratory syndrome coronavirus 2, Vero C1008, read-out: EC50 γ, individual assays) it was 2500 nM. For the same compound, the EC50 in the assay with SARS-CoV-2 TY7-501/γ (setting [4]) was 2200 nM and 2780 nM; in the assay with SARS-CoV-2 TY8-612/β (Severe acute respiratory syndrome coronavirus 2, Vero C1008, read-out: EC50 against TY8-612/β), 1500 ± 240 nM; in the assay with SARS-CoV-2 TY8-612/β (Severe acute respiratory syndrome coronavirus 2, Vero C1008, read-out: EC50 β, Average), 1500 nM; in the assay on SARS-CoV-2 TY8-612/β (Severe acute respiratory syndrome coronavirus 2, Vero C1008, read-out: EC50 β, individual assays), 1560 nM; in the assay with SARS-CoV-2 TY8-612/β (setting [5]), 1700 nM and 1230 nM; in the assay on SARS-CoV-2 QHN001/α (Severe acute respiratory syndrome coronavirus 2, Vero C1008, read-out: EC50 against QHN001/α), 1980 ± 559 nM. In addition, the EC50 in the assay on SARS-CoV-2 QHN001/α (Severe acute respiratory syndrome coronavirus 2, Vero C1008, read-out: EC50 α, Average) is 1980 nM; in the assay with SARS-CoV-2 QHN001/α (Severe acute respiratory syndrome coronavirus 2, Vero C1008, read-out: EC50 α, individual assays), 2540 nM; in the assay with SARS-CoV-2 QHN001/α (setting [6]), 1420 nM; in the assay with SARS-CoV-2 K1734/δ (Severe acute respiratory syndrome coronavirus 2, Vero C1008, read-out: EC50 against K1734/δ) it was 1500 ± 78 nM; with SARS-CoV-2 K1734/δ (Severe acute respiratory syndrome coronavirus 2, Vero C1008, read-out: EC50 δ, individual assays), 1510 nM; in the assay with SARS-CoV-2 K1734/δ (setting [7]), 1420 nM and 1570 nM.
Turning to `CC(C)(C)[C@H](NC(=O)C(F)(F)F)C(=O)N1C[C@H]2[C@@H]([C@H]1C(=S)N[C@@H](C[C@@H]1CCNC1=O)C(=O)c1nc3c(F)cccc3s1)C2(C)C` [TKB248], the EC50 in the assay with SARS-CoV-2 5356/κ (read-out: EC50 against 5356/k) was 180 ± 35 nM; in the assay on SARS-CoV-2 5356/κ (read-out: EC50 κ, Average), 180 nM; in the assay on SARS-CoV-2 5356/κ (setting [3]) it was 215 nM and 145 nM; in the assay with SARS-CoV-2 TY7-501/γ (setting [8]), 228 ± 61 nM; in the assay on SARS-CoV-2 TY7-501/γ (read-out: EC50 γ, Average) it was 228 nM; in the assay with SARS-CoV-2 TY7-501/γ (setting [4]) it was 288 nM and 165 nM. For the same compound, the EC50 with SARS-CoV-2 TY8-612/β (setting [9]) was 287 ± 5 nM; in the assay with SARS-CoV-2 TY8-612/β (read-out: EC50 β, Average), 288 nM; with SARS-CoV-2 TY8-612/β (setting [5]) it was 290 nM and 291 nM and 282 nM; in the assay with SARS-CoV-2 QHN001/α (setting [10]) it was 300 ± 1 nM; with SARS-CoV-2 QHN001/α (read-out: EC50 α, Average), 300 nM; with SARS-CoV-2 QHN001/α (setting [6]), 300 nM and 299 nM. The EC50 with SARS-CoV-2 K1734/δ (read-out: EC50 against K1734/δ) is 273 ± 36 nM; with SARS-CoV-2 K1734/δ (read-out: EC50 δ, Average), 274 nM; in the assay on SARS-CoV-2 K1734/δ (setting [7]), 270 nM and 311 nM and 240 nM. On Glycine-added M^pro, the “Peak ratio, Dimer-1X compound” value was determined as 9.9%. Moreover, on Glycine-added M^pro, the “Peak ratio, Dimer-2X compound” value amounted to 28.4%. The “Effect on lung virus titers (in words)” value in [1] was “exerted comparable efficacy against both Omicron BA.1 and BA.2 variants”.
In the case of `CC(C)(C)[C@H](NC(=O)C(F)(F)F)C(=O)N1C[C@H]2[C@@H]([C@H]1C(=O)N[C@@H](C[C@@H]1CCNC1=O)C(=O)c1nc3c(F)cccc3s1)C2(C)C` [TKB245], the EC50 is 20.6 nM with SARS-CoV-2 5356/κ (read-out: EC50 κ, Average); 19.2 nM and 22.4 nM in the assay with SARS-CoV-2 5356/κ (setting [3]); 56 ± 45 nM in the assay on SARS-CoV-2 TY7-501/γ (setting [8]); 56.1 nM in the assay on SARS-CoV-2 TY7-501/γ (read-out: EC50 γ, Average); 10 nM and 58.2 nM and 100 nM in the assay with SARS-CoV-2 TY7-501/γ (setting [4]); 28 ± 9 nM in the assay with SARS-CoV-2 TY8-612/β (setting [9]). Also, the EC50 is 28.4 nM in the assay with SARS-CoV-2 TY8-612/β (read-out: EC50 β, Average); 19 nM and 36 nM in the assay with SARS-CoV-2 TY8-612/β (setting [5]); approximately 30 nM with SARS-CoV-2^WK-521; 42 ± 42 nM in the assay with SARS-CoV-2 QHN001/α (setting [10]); 42 nM in the assay with SARS-CoV-2 QHN001/α (read-out: EC50 α, Average); 90 nM and 20 nM and 15.8 nM with SARS-CoV-2 QHN001/α (setting [6]). Further, the EC50 with SARS-CoV-2 K1734/δ (read-out: EC50 δ, Average) was 30.4 nM; with SARS-CoV-2 K1734/δ (setting [7]) it was 27.6 nM and 33.6 nM. Moreover, the “Effect on lung virus titers (in words)” value in assay [1] is reported as “considerably reduced titers of both variants in lung”. In addition, in assay [2], the “Chest micro-CT images vs vehicle control” value was “No relevant differences were”. Further, in assay [2], the “Lung immunohistochemistry, SARS-CoV-2 nucleocapsid protein vs vehicle group” value is recorded as “no relevant change in number”.
